Publication PMC6116245 (Viruses, 2018)
≈ marks a conversion by molar mass, not a printed value. Where “and” joins values, the source holds several entries; their conditions need not be identical. Identical values can stand only once. Entries after “also recorded” stand apart in the source; their conditions may differ. Like-named read-outs stand apart in the source and are kept apart here.

Experiments:
FCV [1] = test system: FCV; set-up: method as in ref 26 = [26]; details: read-out: EC50 against FCV in vitro; cited from earlier work
[2] = Cytotoxicity study, CellTitre-Blue viability assay; details: cat
[3] = test system: Crandell Rees Feline Kidney (CRFK) cells; assay: Cytotoxicity study, CellTitre-Blue viability assay; details: read-out: Cell Viability CC50; CRFK cells, 48 h, CellTitre-Blue
[4] = target: FCV RdRp (recombinant FCV Pro-Pol) (Feline calicivirus, UniProt Q66914); assay: Fluorescent RdRp assay (PicoGreen, poly(C) template); details: for RdRp Activity [% of Mock at 10 µM]: 10 µM compound, remaining activity relative to mock; for Reduction of RdRp activity compared to mock controls: fixed concentration of 10 µM
Sequence of FCV RdRp (recombinant FCV Pro-Pol) (Q66914 1072-1763): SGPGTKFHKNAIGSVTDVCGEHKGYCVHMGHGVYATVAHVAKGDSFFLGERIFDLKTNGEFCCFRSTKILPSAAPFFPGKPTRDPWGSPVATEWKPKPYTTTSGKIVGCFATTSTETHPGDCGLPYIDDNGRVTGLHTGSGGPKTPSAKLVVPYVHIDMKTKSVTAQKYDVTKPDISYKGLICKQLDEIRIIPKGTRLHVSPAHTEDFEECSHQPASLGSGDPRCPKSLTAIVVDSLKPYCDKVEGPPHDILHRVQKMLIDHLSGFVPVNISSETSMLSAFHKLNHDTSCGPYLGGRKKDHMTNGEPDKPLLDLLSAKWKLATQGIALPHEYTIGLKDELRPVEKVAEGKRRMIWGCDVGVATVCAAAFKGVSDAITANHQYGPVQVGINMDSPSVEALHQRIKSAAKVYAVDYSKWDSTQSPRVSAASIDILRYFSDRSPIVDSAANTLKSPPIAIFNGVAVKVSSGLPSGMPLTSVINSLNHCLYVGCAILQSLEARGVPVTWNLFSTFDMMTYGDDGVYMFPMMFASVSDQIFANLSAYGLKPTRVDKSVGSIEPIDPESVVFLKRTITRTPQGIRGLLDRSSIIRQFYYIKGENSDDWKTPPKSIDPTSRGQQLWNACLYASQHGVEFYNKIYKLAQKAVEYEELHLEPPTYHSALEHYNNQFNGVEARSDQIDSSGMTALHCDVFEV

FCV strain F-9 = assay: FCV plaque reduction assay in CRFK cells; details: for Antiviral effect against FCV in cell culture (in words): plaque reduction assay; for Therapeutic index (TI = CC50/EC50): CRFK CC50 / FCV plaque reduction EC50
chikungunya replicon = test system: chikungunya replicon; set-up: method as in ref 75 = [75]; details: cited from earlier work
HCV infectious virus = details: read-out: EC50 infectious HCV in cell cultures; cited from earlier work
FCV [5] = test system: FCV; set-up: method as in ref 25 = [25]; details: in vitro assays; cited from earlier work
[6] = target: FCV protease (recombinant FCV Pro-Pol) (Feline calicivirus, UniProt Q66914); assay: Protease FRET activity assay; assay type: biochemical, Feline calicivirus (FCV Urbana); details: for Inhibitory effect against FCV protease (in words): FRET assay, up to 50 µM
Sequence of FCV protease (recombinant FCV Pro-Pol) (Q66914 1072-1763): as above

in vitro = details: cat, Cell Viability CC50
FCV [7] = test system: FCV; set-up: method as in ref 29, 30 = [29]; details: cell-based assays; read-out: EC50 against FCV; cited from earlier work
[8] = test system: Crandell Rees Feline Kidney (CRFK) cells
[9] = test system: FCV RNA in infected CRFK cells; assay: FCV genome reduction assay by RT-qPCR; assay type: cell-based, Feline calicivirus; details: 24 h, MOI 0.0005
rotavirus = test system: rotavirus; set-up: method as in ref 54, 63 = [54]; details: cell culture; cited from earlier work
adenovirus = test system: adenovirus; set-up: method as in ref 54, 63 = [54]; details: cell culture; cited from earlier work
canine coronavirus = test system: canine coronavirus; set-up: method as in ref 54, 63 = [54]; details: cell culture; cited from earlier work
GI norovirus replicon = test system: GI norovirus replicon; set-up: method as in ref 64 = [64]; details: cleared the replicon from the host cells; cited from earlier work
murine norovirus [10] = test system: murine norovirus; set-up: method as in ref 64 = [64]; details: cited from earlier work
[11] = in vivo; cited from earlier work
[12] = test system: human GI.1 norovirus replicon; set-up: method as in ref 59 = [59]; details: cell culture; cited from earlier work
murine norovirus [13] = test system: murine norovirus; set-up: method as in ref 47, 57 = [47]; details: cell culture-based assays; cited from earlier work
human norovirus replicon = test system: human norovirus replicon; set-up: method as in ref 47, 57 = [47]; details: cell culture-based assays; cited from earlier work
human norovirus = test system: human norovirus; set-up: method as in ref 60 = [60]; details: B-cell culture system; cited from earlier work
human norovirus RdRp = test system: human norovirus RdRp; set-up: method as in ref 59 = [59]; details: cited from earlier work
murine norovirus RdRp = test system: murine norovirus RdRp; set-up: method as in ref 59 = [59]; details: cited from earlier work
[14] = in vivo; cited from earlier work; remark: listed apart in the source
[15] = test system: human norovirus protease (genogroup I and II); set-up: method as in ref 29, 52 = [29]; details: FRET-based assays; cited from earlier work
[16] = Crandell Rees Feline Kidney (CRFK) cells, Cell Viability CC50, CRFK cells, 48 h, CellTitre-Blue
[17] = read-out: Plaque Reduction Assay EC50, FCV in CRFK cells, 24 h
[18] = Feline calicivirus, CRFK, 24 h, read-out: Inhibition of plaque formation
[19] = Feline calicivirus, CRFK, 24 h, read-out: Plaque Reduction Assay EC50
[20] = FRET, 50 µM substrate, read-out: In vitro Protease IC50
[21] = Feline calicivirus, CRFK, 24 h, read-out: Plaque Reduction Assay EC50, FCV in CRFK cells, 24 h

For `OC(c1cc(C(F)(F)F)nc2c(C(F)(F)F)cccc12)C1CCCCN1` (centres unmarked) [Mefloquine], the EC50 (FCV [1]) is listed as 6.03 µM.

With `COc1ccc2c(c1)[C@@H]1C[C@]1(C(=O)N1[C@@H]3CC[C@H]1CN(C)C3)Cn1c-2c(C2CCCCC2)c2ccc(C(=O)NS(=O)(=O)N(C)C)cc21` [Beclabuvir] the CC50 at 48 h [2, 16] was < 30 µM, the CC50 [3] was 27.5 µM and the “RdRp Activity [% of Mock at 10 µM]” value [4] was 92.2%. The “Reduction of RdRp activity compared to mock controls” value (“Reduction of RdRp activity” for short) [4] was ≤ 10%.

In the case of `Cc1nc(N=Nc2cc(S(=O)(=O)O)c3cc([N+](=O)[O-])cc(S(=O)(=O)O)c3c2)c(COP(=O)(O)O)c(C=O)c1O` [PPNDS], the “Inhibition of plaque formation” value (FCV strain F-9; 10 µM, 24 h) is reported as < 10%, the “Antiviral effect against FCV in cell culture (in words)” value (“Antiviral effect against FCV” for short) (FCV strain F-9) is reported as “did not display antivirals effects” and the EC50 (FCV strain F-9; [17]) is reported as > 10 µM. The CC50 [3] was > 100 µM, the “RdRp Activity [% of Mock at 10 µM]” value [4] was 7.4% and the “Reduction of RdRp activity” value [4] was 92.6%. For the same compound, the IC50 ([4]; read-out: RdRp Activity IC50, dose-response 0.1-100 µM) was 2.7 µM.

For `O=c1c(O)c(-c2ccc(O)c(O)c2)oc2cc(O)c(O)c(O)c12` [Quercetagetin, quercetagetin], the IC50 (chikungunya replicon) is listed as 43.5 µM, the EC50 (HCV infectious virus) is listed as 40.2 µM and the inhibition at 10 µM (FCV strain F-9; [18]) is listed as < 10%. The EC50 (FCV strain F-9; [19]) was > 10 µM, the “Antiviral effect against FCV” value (FCV strain F-9) was “did not display antivirals effects; also recorded: did not inhibit FCV plaque formation” and the IC50 [4] was 2.8 µM. For the same compound, the “RdRp Activity [% of Mock at 10 µM]” value [4] was 11.7% and the “Reduction of RdRp activity” value [4] was 88.3%.

With `COc1ccc2c(c1)C=C1Cn3c-2c(C2CCCCC2)c2ccc(cc23)C(=O)NS(=O)(=O)N(C)CCOCCN(C)C1=O` [TMC-647055] the CC50 at 48 h [2, 16] was < 30 µM, the CC50 [3] was 27.1 µM and the “RdRp Activity [% of Mock at 10 µM]” value [4] was 93.5%. The “Reduction of RdRp activity” value [4] was ≤ 10%.

For `COC(=O)/C=C/c1cccc(N(Cc2ccc(-c3ccc(N(C)C)cc3)cc2)C(=O)C2CCCCC2)c1` [fexaramine], the “Blocking of FCV entry (in words)” value (FCV [5]) is listed as “effective at blocking FCV entry”.

In the case of `CC(C)C[C@H](NC(=O)OCc1ccccc1)C(=O)N[C@@H](C[C@@H]1CCNC1=O)C(O)S(=O)(=O)[O-].[Na+]` (some centres unmarked) [GC376], the “Inhibition of FCV protease” value ([6]; 50 µM) is reported as 75% and the “Antiviral effect against FCV” value (FCV strain F-9) is reported as “did not display antivirals effects”.

For `CC(C)C[C@H](NC(=O)[C@@H](NC(=O)N[C@@H](Cc1ccccc1)C(=O)O)[C@@H]1CCN=C(N)N1)C(=O)N[C@H](C=O)Cc1ccccc1` [Chymostatin, chymostatin], the “Inhibitory effect against FCV protease (in words)” value [6] was “no inhibitory effect” and the IC50 [6, 20] was > 50 µM.

For `CC(=O)OCC(CCn1cnc2cnc(N)nc21)COC(C)=O` [Famciclovir], the CC50 at 48 h (in vitro) was > 100 µM, the EC50 (FCV strain F-9; [21]) was > 50 µM and the inhibition at 50 µM (FCV strain F-9; Feline calicivirus, CRFK, read-out: Inhibition of plaque formation) was 10%. The “Antiviral effect against FCV” value (FCV strain F-9) was “no antiviral effect observed”.

For `CC(C)C[C@H](NC(=O)[C@H](Cc1cccc2ccccc12)NC(=O)OCc1ccccc1)C(=O)N[C@H](C=O)C[C@@H]1CCNC1=O` [NPI52], the EC50 (FCV [7]) is given as 0.02 µM.

In the case of `CC(C)C[C@H](NC(=O)OCc1ccccc1)C(=O)N[C@@H](CC1CCNC1=O)C(O)S(=O)(=O)O` (some centres unmarked) [GC376], the IC50 [6, 20] is given as 18 µM and 18.7 µM, the CC50 [8] is given as > 100 µM and the EC50 (FCV [7]) is given as 35 µM and 35.2 µM. For the same compound, the EC50 (FCV strain F-9; [17]) was > 10 µM.

In the case of `CC(=O)Oc1ccccc1C(=O)Nc1ncc([N+](=O)[O-])s1` [Nitazoxanide, nitazoxanide], the IC50 [6] is given as > 10 µM, the “Reduction of FCV RNA levels compared to mock-treated cells” value ([9]; 2.5 µM) is given as 80% and the EC50 rotavirus replication (rotavirus) is given as 0.5 µg/mL (≈ 1.63 µM). The EC50 adenovirus replication (adenovirus) was 0.2 µg/mL (≈ 0.651 µM), the “EC50 canine coronavirus replication” value (canine coronavirus) was 1 µg/mL (≈ 3.25 µM) and the “Concentration reported to inhibit GI norovirus replicon replication” value (GI norovirus replicon) was 5 µg/mL. For the same compound, the “Activity against murine norovirus (in words)” value (murine norovirus [10]) was “ineffective”, the “Side-effects observed in cats” value [11] was “diarrhea and vomiting” and the “Therapeutic index (TI = CC50/EC50)” value (FCV strain F-9) was 21.1. The EC50 (FCV strain F-9; [21]) was 0.5 µM, the EC50 (FCV strain F-9; Feline calicivirus, CRFK, read-out: Plaque reduction EC50, FCV in CRFK cells, same value given in µg/mL) was 0.2 µg/mL and the EC50 (FCV strain F-9; [17]) was 0.6 µM. The CC50 at 48 h [2, 16] was 12.7 µM and the IC50 [4] was > 10 µM.

In the case of `C[C@@]1(O)[C@H](O)[C@@H](CO)O[C@H]1n1ccc(N)nc1=O` [2CMC, 2′-C-methylcytidine], the “Reduction of FCV RNA levels compared to mock-treated cells” value ([9]; 10 µM) is listed as 95%, the EC50 [12] is listed as 8.2 µM and the EC50 (murine norovirus [13]) is listed as ~2 µM. For the same compound, the EC50 (human norovirus replicon) was ~18 µM, the EC50 (human norovirus) was 0.3 µM and the “Therapeutic index (TI = CC50/EC50)” value (FCV strain F-9) was > 40. The EC50 (FCV strain F-9; [21]) was 2.5 µM, the EC50 (FCV strain F-9; [17]) was 2.6 µM and the CC50 at 48 h [2, 16] was > 100 µM.

For `C[C@@]1(O)[C@H](O)[C@@H](COP(=O)(O)OP(=O)(O)OP(=O)(O)O)O[C@H]1n1ccc(N)nc1=O` [tri-phosphorylated 2CMC], the IC50 (human norovirus RdRp) is listed as 2.4 µM and the IC50 (murine norovirus RdRp) is listed as 1.4 µM.

In the case of `CC(C)[C@H](N)C(=O)O[C@@H]1[C@@H](CO)O[C@@H](n2ccc(N)nc2=O)[C@]1(C)O` [Valopicitabine], the Adverse events [14] is listed as “dose-related gastrointestinal adverse events”.

In the case of `CC(C)OC(=O)[C@H](C)N[P@](=O)(OC[C@H]1O[C@@H](n2ccc(=O)[nH]c2=O)[C@](C)(F)[C@@H]1O)Oc1ccccc1` [Sofosbuvir], the inhibition at 10 µM (FCV strain F-9; [18]) is reported as < 10%, the EC50 (FCV strain F-9; [19]) is reported as > 10 µM and the CC50 at 48 h [2] is reported as > 100 µM.

With `O=C(O)c1ccc2c(c1)nc(-c1ccc(OCc3cc(N4CCCC4=O)ccc3-c3ccc(Cl)cc3)cc1F)n2C1CCCCC1` [JTK-109] the “RdRp Activity [% of Mock at 10 µM]” value [4] was 89.8% and the “Reduction of RdRp activity” value [4] was ≤ 10%.

For `CCOC(=O)/C=C/[C@H](C[C@@H]1CCNC1=O)NC(=O)[C@@H](CC(=O)[C@@H](NC(=O)c1cc(C)on1)C(C)C)Cc1ccc(F)cc1` [Rupintrivir, rupintrivir], the IC50 [6] is given as > 50 µM, the “Inhibitory effect against FCV protease (in words)” value [6] is given as “no inhibitory effect” and the EC50 (FCV [7]) is given as > 50 µM. For the same compound, the IC50 [15] was < 1 µM and the CC50 at 48 h [2, 16] was > 100 µM.

With `NC(=O)c1nc(F)c[nH]c1=O` [T-705, Favipiravir] the inhibition at 10 µM (FCV strain F-9; [18]) was < 10%, the EC50 (FCV strain F-9; [21]) was > 10 µM and the CC50 at 48 h [2, 16] was > 100 µM.
